Test results reported in patent US4897382A, “Organic amide compounds derived from nitrogenous lipids” (priority 1981, dated 1990).
Entries after “also recorded” stand apart in the source; their conditions may differ. Where two headings read alike, the source gives them in different places.

Assays:
dopamine receptors = molecular target: T1, dopamine receptors (Rattus norvegicus, UniProt P61169); experiment: Binding of (^3H)-spiroperidole to hypophysis membranes of rat; details: for binding power / in vitro activity, in words: compared to the parent acid or lipid alone; for activity at 1 µM: test substance 10^-6 M; for activity at 0.1 µM: test substance 10^-7 M
T1 construct: on hypophysis sinaptosomal rat membranes; from tissue; host or cells: rat hypophysis (pituitary), synaptosomal membranes
Method: The in vitro biological activity was determined by comparative tests measuring the binding power of the labelled spiroperidole (^3 H)-spiroperidole on hypophysis sinaptosomal rat membranes according to the method described by Greese et al (GREESE I., SCHNEIDER R. and SNYDER S. H.; H-spiroperidole labels dopamine receptors in pituitary and brain; Europ. J. Pharmacol. 46, 377-381 (1977)).

prolactin [1] = experiment: Hypoprolactinemic effect in rats, serum prolactin by RIA, at the circadian peak at 4 p.m.; details: for inhibition in vivo at 0.5 mg/kg / inhibition in vivo at 5 mg/kg: Rattus norvegicus; for in vivo (hypoprolactinemic) activity, in words: rats, summary statement
prolactin [2] = experiment: Hypoprolactinemic effect in rats, serum prolactin by RIA, sulpiride-treated (hyperprolactinemic) animals; details: for inhibition in vivo at 0.5 mg/kg / inhibition in vivo at 5 mg/kg: Rattus norvegicus; for inhibition in vivo at 0.5 mg/kg: read-out: Prolactin Inhibition %, sulpiride 10 γ/kg + 0.5 mg/kg test substance; for inhibition in vivo at 5 mg/kg: read-out: Prolactin Inhibition %, sulpiride 10 γ/kg + 5.0 mg/kg test substance
[3] = Anticonvulsant effects in rat (isoniazide convulsions); assay type: in vivo
Method: The in vivo activity of Product 1 was measured by the method described by Costa et al (E. Costa, A. Guidotti and C. C. Mao; "Evidence for involvement of GABA in the Action of Benzodiazepines: Studies in Rat Cerebellum" in Mechanism of Action of Benzodiazepines; Ed. by E. Costa and P. Greengard, New York, Raven Press. pp. 113-130 (1975)) and by Loescher and Frey (Loesher, W. and Frey, H. H.; "Effect of convulsant and anticonvulsant agents on level and metabolism of gamma-aminobutyric acid in mouse brain"; Naunyn-Schmiedeberg's Arch. Pharmacol. 296, 263-269 (1977)). These tests are based on the known activity of isoniazide to cause convulsions and a lowering of the GABA cerebral levels and the glutamic-decarboxylase enzyme activity.

[4] = General pharmacological activity in vitro and in vivo; details: tested in vitro and in vivo in laboratory animals
[5] = system: synaptic membranes of the rat cortex; experiment: Binding of ^3H-GABA on synaptic membranes of the rat cortex (method of Enna and Snyder); details: for Product bound % (^3H-GABA binding on rat cortex membranes): ^3H-GABA 2.10^-8 M
Source text: Table I presents the results of these tests, expressed in percentage of the fixed active product, comparing the in vitro activity of Product 1 with the activities of the individual components which comprise Product 1.

[6] = read-out: Product bound % ((^3H) spiroperidole binding to hypophysis membranes), (^3H) spiroperidole 2.10^-9 M (2 nM), test substance 10^-4 M
[7] = read-out: Product bound % ((^3H) spiroperidole binding to hypophysis membranes), (^3H) spiroperidole 2.10^-9 M (2 nM), test substance 10^-5 M
[8] = read-out: Product bound % ((^3H) spiroperidole binding to hypophysis membranes), (^3H) spiroperidole 2.10^-9 M (2 nM)
[9] = 0.5 mg/kg, circadian peak at 4 p.m.
[10] = 5.0 mg/kg, circadian peak at 4 p.m.
[11] = read-out: Prolactin Inhibition %, 0.5 mg/kg, circadian peak at 4 p.m.
[12] = read-out: Prolactin Inhibition %, 5.0 mg/kg, circadian peak at 4 p.m.
[13] = sulpiride 10 γ/kg + 0.5 mg/kg test substance
[14] = sulpiride 10 γ/kg + 5.0 mg/kg test substance
[15] = isoniazide 160 mg/kg (s.c.) alone
[16] = (^3H) spiroperidole 2.10^-9 M (2 nM), test substance 10^-4 M, read-out: Product bound % ((^3H) spiroperidole binding to hypophysis membranes)
[17] = (^3H) spiroperidole 2.10^-9 M (2 nM), test substance 10^-5 M, read-out: Product bound % ((^3H) spiroperidole binding to hypophysis membranes)
[18] = (^3H) spiroperidole 2.10^-9 M (2 nM), read-out: Product bound % ((^3H) spiroperidole binding to hypophysis membranes)
[19] = read-out: Prolactin Inhibition %
[20] = isoniazide 160 mg/kg (s.c.) + sphingosine 12 mg/kg (i.p.)

T1 sequence (P61169 whole entry): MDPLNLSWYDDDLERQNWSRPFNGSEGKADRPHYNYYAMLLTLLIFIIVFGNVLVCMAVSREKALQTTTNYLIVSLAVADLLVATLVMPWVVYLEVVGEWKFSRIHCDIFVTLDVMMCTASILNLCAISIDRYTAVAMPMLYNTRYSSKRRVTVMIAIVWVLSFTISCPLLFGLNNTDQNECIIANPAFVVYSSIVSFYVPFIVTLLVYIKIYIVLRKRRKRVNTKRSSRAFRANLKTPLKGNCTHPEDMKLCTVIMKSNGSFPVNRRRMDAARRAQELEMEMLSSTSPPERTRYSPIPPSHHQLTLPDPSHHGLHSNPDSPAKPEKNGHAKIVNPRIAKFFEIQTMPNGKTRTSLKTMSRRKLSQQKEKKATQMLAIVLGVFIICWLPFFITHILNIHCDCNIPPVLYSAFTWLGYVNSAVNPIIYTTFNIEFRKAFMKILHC

SMILES	binding power / in vitro activity, in words (dopamine receptors)	activity at 100 µM (dopamine receptors; [6]) [%]	activity at 10 µM (dopamine receptors; [7]) [%]	activity at 1 µM (dopamine receptors; [8]) [%]	activity at 0.1 µM (dopamine receptors; [8]) [%]	Prolactin (prolactin [1]; [9]) [ng/mL]	Prolactin (prolactin [1]; [10]) [ng/mL]	inhibition in vivo at 0.5 mg/kg (prolactin [1]; [11]) [%]	inhibition in vivo at 5 mg/kg (prolactin [1]; [12]) [%]	in vivo (hypoprolactinemic) activity, in words (prolactin [1])	inhibition in vivo at 0.5 mg/kg (prolactin [2]) [%]	inhibition in vivo at 5 mg/kg (prolactin [2]) [%]	Prolactin (prolactin [2]; [13]) [ng/mL]	Prolactin (prolactin [2]; [14]) [ng/mL]	other results
CCCCCCCCCCCCCC=CC(O)C(CO)NC(=O)[C@@H]1C=C2c3cccc4[nH]cc(c34)C[C@H]2N(C)C1 (some centres unmarked) [Product 2.2, Lysergylsphingosine-amide]	far superior to either lysergic acid or sphingosine alone	35	55	85	100	48.0 ± 4.8	40.0 ± 2.6	27	39	far superior to either lysergic acid or sphingosine alone	32	44	59.0 ± 6.0	49.0 ± 5.0	
NNC(=O)c1ccncc1 [Isoniazide, isoniazide]															Latency of the convulsions measured [3, 15]: 3070 ± 110 s; Number of animals in convulsions [3, 15]: 26/30; Number of dead animals [3, 15]: 15
CCCCCCCCCCCCCC=CC(O)C(CO)NC(=O)C1CC2c3cccc4[nH]cc(c34)CC2N(C)C1 (centres unmarked) [Product 3, Dihydrolysergylsphingosine amide]	significant and far superior, under the same experimental conditions, to that of dihydrolysergic acid or sphingosine alone	10	40	90	100	38.7 ± 4.7	32.2 ± 5.7	42	52	significant biological activity	30	60	53.7 ± 8.5	31.2 ± 2.5	action in the central nervous system, in words [4]: capable of acting directly in the central nervous system
CCCCCCCCCCCCCC=CC(O)C(N)COC1OC(CO)C(O)C(O)C1O (centres unmarked) [psychosine, Psychosine or galactosylsphingosine]						50.0 ± 5.0	41.0 ± 5.0						70.0 ± 6.0	61.0 ± 7.0	activity at 100 µM (dopamine receptors; [16]): 60%; activity at 10 µM (dopamine receptors; [17]): 90%; activity at 1 µM (dopamine receptors; [18]): 100%; activity at 0.1 µM (dopamine receptors; [18]): 100%; inhibition in vivo at 0.5 mg/kg (prolactin [1]; [19]): 14%; inhibition in vivo at 5 mg/kg (prolactin [1]; [19]): 30%
CCCCCCCCCCCCCCCC(O)C(CO)NC(=O)C1CC2c3cccc4[nH]cc(c34)CC2N(C)C1 (centres unmarked) [Product 15, Dihydrolysergyldihydrosphingosine amide]	far superior to either dihydrolysergic acid or dihydrosphingosine alone	20	30	90	100	40.0 ± 5.6	31.0 ± 3.4	35	50	far superior to either dihydrolysergic acid or dihydrosphingosine alone	44	55	48.0 ± 4.0	39.0 ± 6.0	action in the central nervous system, in words [4]: capable of acting directly in the central nervous system
CCCCCCCCCCCCCCCC(O)C(N)CO (centres unmarked) [dihydrosphingosine]						66.0 ± 4.2	60.0 ± 2.8						81.0 ± 11.0	74.0 ± 6.0	activity at 100 µM (dopamine receptors; [16]): 100%; activity at 10 µM (dopamine receptors; [17]): 100%; activity at 1 µM (dopamine receptors; [18]): 100%; activity at 0.1 µM (dopamine receptors; [18]): 100%; inhibition in vivo at 0.5 mg/kg (prolactin [1]; [19]): 0%; inhibition in vivo at 5 mg/kg (prolactin [1]; [19]): 0%
CCCCCCCCCCCCCC=CC(O)C(COC1OC(CO)C(O)C(O)C1O)NC(=O)C1CC2c3cccc4[nH]cc(c34)CC2N(C)C1 (centres unmarked) [Product 16, Dihydrolysergylpsychosine amide]	far superior to either dihydrolysergic acid or psychosine alone	25	45	80	100	40.0 ± 7.0	31.0 ± 6.0	31	47	far superior to either dihydrolysergic acid or psychosine alone	37	52	51.0 ± 7.0	39.0 ± 4.0	action in the central nervous system, in words [4]: capable of acting directly in the central nervous system
CN1C[C@H](C(=O)O)CC2c3cccc4[nH]cc(c34)C[C@H]21 (some centres unmarked) [dihydrolysergic acid]		45	95	100	100			0	25	weak effect; also recorded: essentially inactive when administered alone	0				Product bound % ((^3H) spiroperidole binding to hypophysis membranes) (dopamine receptors; (^3H) spiroperidole 2.10^-9 M (2 nM), test substance 10^-4 M, 100 µM): 60%; Product bound % ((^3H) spiroperidole binding to hypophysis membranes) (dopamine receptors; (^3H) spiroperidole 2.10^-9 M (2 nM), test substance 10^-5 M, 10 µM): 90%
CN1C[C@@H](C(=O)O)C=C2c3cccc4[nH]cc(c34)C[C@H]21 [isolysergic acid]										essentially inactive when administered alone					
CN1C[C@H](C(=O)O)C=C2c3cccc4[nH]cc(c34)C[C@H]21 [lysergic acid]		60	90	100	100	61.0 ± 3.8	52.0 ± 6.2	0	20	essentially inactive when administered alone	13	16	76.0 ± 9.0	73.0 ± 10.0	
CCCCCCCCCCCCC/C=C/[C@@H](O)[C@@H](N)CO [sphingosine]		100	100	100	100			0	0		0				Product bound % (^3H-GABA binding on rat cortex membranes) ([5]; test substance 10^-4 M, 100 µM): 100%; Product bound % (^3H-GABA binding on rat cortex membranes) ([5]; test substance 10^-5 M, 10 µM): 100%; Product bound % (^3H-GABA binding on rat cortex membranes) ([5]; test substance 10^-6 M, 1 µM): 100%; Product bound % (^3H-GABA binding on rat cortex membranes) ([5]; test substance 10^-7 M, 0.1 µM): 100%; Product bound % (^3H-GABA binding on rat cortex membranes) ([5]; test substance 10^-8 M, 0.01 µM): 100%; in vitro biological activity (GABA binding), in words ([5]; summary of Table I): no biological activity; Latency of the convulsions measured [3, 20]: 3700 ± 200 s; Number of animals in convulsions [3, 20]: 20/30; Number of dead animals [3, 20]: 9; Prolactin Inhibition % (prolactin [1]; [9]): 0%; Prolactin Inhibition % (prolactin [1]; [10]): 0%; Prolactin Inhibition % (prolactin [2]; [13]): 0%
